One test addresses T1, Human opioid (ORL1) (Homo sapiens, UniProt P41146).
T1 construct: purchased Perkin Elmer Biosignal
In words: Radioligand binding, human opioid ORL1 membranes, FlashPlate, [125I]-Nociceptin. The conditions noted are these: compound at 10 μM; [125I]-Nociceptin, FlashPlate. In short, it runs like this:
(§1)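 Cloned human receptor membranes were coated onto FlashPlate wells and incubated with radioligand and compound (added from a 0.5 mM DMSO daughter plate) for 1 hour at room temperature in the dark. Scintillation counting gave percent inhibition, with DMSO defining total and reference ligand defining non-specific binding.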

For a further test, the target named is T2, Mouse urotensin (mUR2) (Mus musculus, UniProt Q8VIH9).
T2 construct: purchased Perkin Elmer Biosignal
T2 sequence (Q8VIH9 1-385): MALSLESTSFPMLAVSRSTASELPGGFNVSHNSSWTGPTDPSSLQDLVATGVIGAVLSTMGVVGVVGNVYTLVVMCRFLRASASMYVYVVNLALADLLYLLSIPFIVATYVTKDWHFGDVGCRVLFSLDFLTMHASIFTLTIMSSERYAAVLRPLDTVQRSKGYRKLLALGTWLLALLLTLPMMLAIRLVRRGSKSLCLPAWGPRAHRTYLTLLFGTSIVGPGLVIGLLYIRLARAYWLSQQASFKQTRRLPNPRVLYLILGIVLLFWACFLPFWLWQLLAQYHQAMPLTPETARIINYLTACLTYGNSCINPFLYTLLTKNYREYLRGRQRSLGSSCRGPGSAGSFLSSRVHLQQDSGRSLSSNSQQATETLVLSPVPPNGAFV
In words: Radioligand binding, mouse urotensin mUR2 membranes, FlashPlate, [125I]-Urotensin II. The conditions noted are these: compound at 10 μM; [125I]-Urotensin II, FlashPlate. In short, it runs like this:
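Cloned mouse urotensin (mUR2) receptor membranes from Perkin Elmer Biosignal were immobilized in FlashPlate microplates using a proprietary coating. Each well got 19.5 μl buffer, then 0.5 μl of DMSO, reference ligand, or compound. Adding 5 μl of [125I]-Urotensin II, diluted to 5× final concentration in binding buffer, started binding. Plates were sealed with TopSeal-A and incubated 1 hour at room temperature in the dark. Wells were counted for 30 seconds each on a TopCount after a 60-second delay, and percentage inhibition was calculated.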

In another test the target is T3, Human Melanocortin (MC4) (Homo sapiens, UniProt P32245).
T3 construct: purchased Perkin Elmer Biosignal
T3 sequence (P32245 whole entry): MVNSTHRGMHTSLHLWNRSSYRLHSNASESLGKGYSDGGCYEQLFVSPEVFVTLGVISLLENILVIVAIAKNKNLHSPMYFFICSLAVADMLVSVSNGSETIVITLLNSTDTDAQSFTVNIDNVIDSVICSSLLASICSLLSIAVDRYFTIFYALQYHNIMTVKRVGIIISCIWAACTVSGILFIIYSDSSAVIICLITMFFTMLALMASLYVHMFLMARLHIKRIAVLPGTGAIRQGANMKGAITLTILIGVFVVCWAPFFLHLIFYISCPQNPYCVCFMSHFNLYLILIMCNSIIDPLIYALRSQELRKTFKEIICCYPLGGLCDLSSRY
In words: Radioligand binding, human melanocortin MC4 membranes, FlashPlate, [125I]-NDP-αMSH. Conditions: compound at 10 μM; [125I]-NDP-αMSH, FlashPlate. Summed up:
as §1

Another test concerns the target T4, Human μ-opioid (MOP) (Homo sapiens, UniProt P35372).
T4 construct: purchased Perkin Elmer Biosignal
Put plainly: Radioligand binding, human μ-opioid (MOP) membranes, FlashPlate, [3H]-Naloxone. The conditions noted are these: compound at 10 μM; [3H]-Naloxone, FlashPlate. Summed up: as §1

Test [1] addresses T5, Human melanin-concentrating hormone (MCH1) (Homo sapiens, UniProt Q99705).
T5 construct: purchased Perkin Elmer Biosignal
Put plainly: Radioligand binding, human melanin-concentrating hormone MCH1 membranes, FlashPlate, [125I]-S36057. Conditions: compound at 10 μM; [125I]-S36057, FlashPlate. Summed up: as §1

A further test addresses T6, Human Melanocortin (MC3) (Homo sapiens, UniProt P41968).
T6 construct: purchased Perkin Elmer Biosignal
In words: Radioligand binding, human melanocortin MC3 membranes, FlashPlate, [125I]-NDP-αMSH. Conditions: compound at 10 μM; [125I]-NDP-αMSH, FlashPlate. Summed up:
as §1

Test [2] deals with T7, Human neuropeptide Y (NPY-Y1) (Homo sapiens, UniProt P25929).
T7 construct: purchased Perkin Elmer Biosignal
T7 sequence (P25929 1-384): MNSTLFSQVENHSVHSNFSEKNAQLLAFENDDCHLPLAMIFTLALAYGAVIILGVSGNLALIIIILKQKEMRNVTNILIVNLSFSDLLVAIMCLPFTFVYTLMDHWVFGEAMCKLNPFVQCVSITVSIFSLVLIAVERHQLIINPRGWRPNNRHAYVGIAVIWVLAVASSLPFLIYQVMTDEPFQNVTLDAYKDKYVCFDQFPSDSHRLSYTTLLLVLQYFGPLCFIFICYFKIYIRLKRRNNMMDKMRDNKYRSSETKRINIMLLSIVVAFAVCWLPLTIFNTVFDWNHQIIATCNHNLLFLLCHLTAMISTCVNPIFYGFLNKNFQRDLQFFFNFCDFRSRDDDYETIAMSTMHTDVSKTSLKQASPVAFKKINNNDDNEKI
Put plainly: Radioligand binding, human neuropeptide Y NPY-Y1 membranes, FlashPlate, [125I]-PYY. The conditions noted are these: compound at 10 μM; [125I]-PYY, FlashPlate. Summed up:
as §1

The target in a further test is T8, Human neurokinin (NK1) (Homo sapiens, UniProt P25103).
T8 construct: purchased Perkin Elmer Biosignal
T8 sequence (P25103 whole entry): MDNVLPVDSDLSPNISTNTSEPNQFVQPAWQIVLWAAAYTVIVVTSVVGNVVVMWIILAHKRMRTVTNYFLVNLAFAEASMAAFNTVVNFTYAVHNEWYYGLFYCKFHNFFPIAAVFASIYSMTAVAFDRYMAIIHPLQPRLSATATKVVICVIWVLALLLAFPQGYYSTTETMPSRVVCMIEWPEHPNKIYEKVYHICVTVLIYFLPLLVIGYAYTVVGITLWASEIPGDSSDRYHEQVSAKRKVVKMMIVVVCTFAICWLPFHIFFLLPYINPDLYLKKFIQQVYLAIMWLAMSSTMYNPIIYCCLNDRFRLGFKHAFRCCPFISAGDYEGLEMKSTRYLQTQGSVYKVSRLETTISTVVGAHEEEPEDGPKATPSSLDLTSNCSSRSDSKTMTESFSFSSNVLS
Put plainly: Radioligand binding, human neurokinin NK1 membranes, filtration, [125I]-Substance P. Conditions: compound at 10 μM; [125I]-Substance P, filtration. Summed up: (§2)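 Membranes from cloned human receptors were incubated with compound and radioligand for 1 hour at room temperature. Bound ligand was collected on 0.3% PEI-soaked filters, washed with cold 50 mM Tris-HCl pH 7.4, and counted by scintillation. Percent inhibition was computed against DMSO totals and reference-ligand nonspecific wells.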

For a further test, the target named is T9, Human melanocortin (MC5) (Homo sapiens, UniProt P33032).
T9 construct: purchased Perkin Elmer Biosignal
T9 sequence (P33032 whole entry): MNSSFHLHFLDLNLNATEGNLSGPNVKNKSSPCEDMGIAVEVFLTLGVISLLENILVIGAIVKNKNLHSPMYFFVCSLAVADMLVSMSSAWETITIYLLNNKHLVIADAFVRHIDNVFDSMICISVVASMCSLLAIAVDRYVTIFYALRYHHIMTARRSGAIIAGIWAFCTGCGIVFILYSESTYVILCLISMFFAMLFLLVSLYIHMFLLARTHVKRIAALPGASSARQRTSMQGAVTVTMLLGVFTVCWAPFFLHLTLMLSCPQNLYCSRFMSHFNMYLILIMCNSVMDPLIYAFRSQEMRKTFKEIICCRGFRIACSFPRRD
In words: Radioligand binding, human melanocortin MC5 membranes, FlashPlate, [125I]-NDP-αMSH. The conditions noted are these: compound at 10 μM; [125I]-NDP-αMSH, FlashPlate. In short, it runs like this: as §1

For a further test, the target named is T10, Human δ-opioid (DOP) (Homo sapiens, UniProt P41143).
T10 construct: purchased Perkin Elmer Biosignal
T10 sequence (P41143 whole entry): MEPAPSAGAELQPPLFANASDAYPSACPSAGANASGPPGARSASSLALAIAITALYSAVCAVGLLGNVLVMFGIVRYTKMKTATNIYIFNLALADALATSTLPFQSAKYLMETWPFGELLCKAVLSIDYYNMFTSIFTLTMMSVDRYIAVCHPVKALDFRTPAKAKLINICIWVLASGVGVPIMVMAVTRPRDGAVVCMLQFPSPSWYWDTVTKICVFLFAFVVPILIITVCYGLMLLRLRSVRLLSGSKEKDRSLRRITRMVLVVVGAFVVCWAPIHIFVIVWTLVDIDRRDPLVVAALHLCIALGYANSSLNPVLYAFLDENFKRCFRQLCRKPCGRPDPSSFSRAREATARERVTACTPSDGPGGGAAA
In words: Radioligand binding, human δ-opioid (DOP) membranes, FlashPlate, [3H]-Bremazocine. Conditions: compound at 10 μM; [3H]-Bremazocine, FlashPlate. In short, it runs like this: as §1

The target in the next test is T11, Human κ-Opioid (KOP) (Homo sapiens, UniProt P41145).
T11 construct: purchased Perkin Elmer Biosignal
T11 sequence (P41145 whole entry): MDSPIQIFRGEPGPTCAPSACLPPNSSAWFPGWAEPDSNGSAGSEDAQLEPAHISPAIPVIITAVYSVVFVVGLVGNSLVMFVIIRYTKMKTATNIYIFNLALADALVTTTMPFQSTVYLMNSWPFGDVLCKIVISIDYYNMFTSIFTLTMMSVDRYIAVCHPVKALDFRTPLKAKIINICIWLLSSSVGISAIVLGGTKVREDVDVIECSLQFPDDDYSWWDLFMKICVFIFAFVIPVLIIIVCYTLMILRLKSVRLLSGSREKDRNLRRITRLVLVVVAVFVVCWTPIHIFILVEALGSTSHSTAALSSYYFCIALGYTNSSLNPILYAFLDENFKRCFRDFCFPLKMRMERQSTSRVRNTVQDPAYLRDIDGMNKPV
In words: Radioligand binding, human κ-opioid (KOP) membranes, filtration, [3H]-Diprenorphine. Conditions: compound at 10 μM; [3H]-Diprenorphine, filtration. Summed up: as §2

T5 sequence (Q99705 whole entry): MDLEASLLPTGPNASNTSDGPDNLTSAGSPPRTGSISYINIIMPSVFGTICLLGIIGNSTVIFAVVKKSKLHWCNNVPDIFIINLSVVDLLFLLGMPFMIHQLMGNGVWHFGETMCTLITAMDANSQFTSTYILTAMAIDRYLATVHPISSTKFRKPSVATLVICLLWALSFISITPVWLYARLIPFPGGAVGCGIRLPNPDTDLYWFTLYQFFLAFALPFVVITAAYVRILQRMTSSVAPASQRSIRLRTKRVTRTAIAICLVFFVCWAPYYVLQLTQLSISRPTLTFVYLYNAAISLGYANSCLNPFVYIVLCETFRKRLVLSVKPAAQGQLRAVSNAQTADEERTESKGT
T6 sequence (P41968 whole entry): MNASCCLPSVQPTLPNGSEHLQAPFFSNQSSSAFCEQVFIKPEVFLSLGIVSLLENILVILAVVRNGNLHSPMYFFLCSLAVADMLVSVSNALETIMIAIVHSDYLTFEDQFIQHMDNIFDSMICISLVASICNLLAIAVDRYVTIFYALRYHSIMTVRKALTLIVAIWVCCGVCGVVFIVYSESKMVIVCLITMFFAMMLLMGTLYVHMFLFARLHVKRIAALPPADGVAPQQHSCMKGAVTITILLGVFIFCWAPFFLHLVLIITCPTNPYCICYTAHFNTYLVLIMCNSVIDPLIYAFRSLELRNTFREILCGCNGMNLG
T4 sequence (P35372 whole entry): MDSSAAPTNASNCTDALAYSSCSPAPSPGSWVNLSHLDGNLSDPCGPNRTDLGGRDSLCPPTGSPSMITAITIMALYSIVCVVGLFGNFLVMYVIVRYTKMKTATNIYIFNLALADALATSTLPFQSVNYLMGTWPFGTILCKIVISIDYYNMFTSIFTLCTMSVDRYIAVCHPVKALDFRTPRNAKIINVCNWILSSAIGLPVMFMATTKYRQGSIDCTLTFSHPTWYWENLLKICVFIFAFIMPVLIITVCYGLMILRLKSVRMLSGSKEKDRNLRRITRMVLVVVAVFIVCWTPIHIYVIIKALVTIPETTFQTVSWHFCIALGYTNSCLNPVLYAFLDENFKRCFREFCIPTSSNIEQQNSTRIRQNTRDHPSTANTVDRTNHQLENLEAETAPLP
T1 sequence (P41146 whole entry): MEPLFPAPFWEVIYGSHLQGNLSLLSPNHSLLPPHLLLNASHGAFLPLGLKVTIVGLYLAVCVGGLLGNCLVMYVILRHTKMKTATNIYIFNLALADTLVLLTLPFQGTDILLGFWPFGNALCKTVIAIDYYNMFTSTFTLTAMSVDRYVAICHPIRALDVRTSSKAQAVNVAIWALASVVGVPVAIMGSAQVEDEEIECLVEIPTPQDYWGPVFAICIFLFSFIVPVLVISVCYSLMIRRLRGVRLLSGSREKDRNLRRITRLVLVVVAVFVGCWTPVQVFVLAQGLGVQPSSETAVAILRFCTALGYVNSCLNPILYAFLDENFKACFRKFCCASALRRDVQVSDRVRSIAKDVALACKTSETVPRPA

Take `CSC1OC(COCc2ccccc2)C(O)C(OCc2ccc(Cl)cc2)C1NC(=O)CCNC(=N)N` (stereo not drawn) [compound 267]: at Human opioid (ORL1), the “A10: inhibition of radioligand binding” value is reported as “− (“−” indicates less than 50% inhibition at 10 μM)”. The “A11: inhibition of radioligand binding” value at Mouse urotensin (mUR2) is given as “− (“−” indicates less than 50% inhibition at 10 μM)”. The “A4: inhibition of radioligand binding” value at Human Melanocortin (MC4) was “+ (“+” indicates greater than 50% inhibition at 10 μM)”. The “A7: inhibition of radioligand binding” value at Human μ-opioid (MOP) is “− (“−” indicates less than 50% inhibition at 10 μM)”. The “A6: inhibition of radioligand binding” value in test [1] is recorded as “− (“−” indicates less than 50% inhibition at 10 μM)”. Moreover, the “A3: inhibition of radioligand binding” value at Human Melanocortin (MC3) is recorded as “− (“−” indicates less than 50% inhibition at 10 μM)”. Besides, the “A9: inhibition of radioligand binding” value in test [2] is reported as “− (“−” indicates less than 50% inhibition at 10 μM)”. For the same molecule, on Human neurokinin (NK1), the “A8: inhibition of radioligand binding” value was “+ (“+” indicates greater than 50% inhibition at 10 μM)”. Besides, the “A5: inhibition of radioligand binding” value at Human melanocortin (MC5) is given as “− (“−” indicates less than 50% inhibition at 10 μM)”. Moreover, the “A1: inhibition of radioligand binding” value at Human δ-opioid (DOP) is “− (“−” indicates less than 50% inhibition at 10 μM)”. For the same molecule, at Human κ-Opioid (KOP), the “A2: inhibition of radioligand binding” value is “− (“−” indicates less than 50% inhibition at 10 μM)”.
For the molecule `CSC1OC(COCc2ccccc2)C(O)C(OCc2ccc(Cl)cc2)C1NC(=O)CCCNC(=N)N` (stereo not drawn) [compound 268], on Human opioid (ORL1), the “A10: inhibition of radioligand binding” value is reported as “− (“−” indicates less than 50% inhibition at 10 μM)”. The “A11: inhibition of radioligand binding” value on Mouse urotensin (mUR2) is “− (“−” indicates less than 50% inhibition at 10 μM)”. For the same molecule, the “A4: inhibition of radioligand binding” value on Human Melanocortin (MC4) is reported as “− (“−” indicates less than 50% inhibition at 10 μM)”. At Human μ-opioid (MOP), the “A7: inhibition of radioligand binding” value is “− (“−” indicates less than 50% inhibition at 10 μM)”. The “A6: inhibition of radioligand binding” value in test [1] is on record as “− (“−” indicates less than 50% inhibition at 10 μM)”. Moreover, on Human Melanocortin (MC3), the “A3: inhibition of radioligand binding” value is “− (“−” indicates less than 50% inhibition at 10 μM)”. For the same molecule, in test [2], the “A9: inhibition of radioligand binding” value is on record as “− (“−” indicates less than 50% inhibition at 10 μM)”. In addition, the “A8: inhibition of radioligand binding” value at Human neurokinin (NK1) was “+ (“+” indicates greater than 50% inhibition at 10 μM)”. At Human melanocortin (MC5), the “A5: inhibition of radioligand binding” value is on record as “+ (“+” indicates greater than 50% inhibition at 10 μM)”. Besides, the “A1: inhibition of radioligand binding” value at Human δ-opioid (DOP) is reported as “− (“−” indicates less than 50% inhibition at 10 μM)”. Moreover, on Human κ-Opioid (KOP), the “A2: inhibition of radioligand binding” value is listed as “− (“−” indicates less than 50% inhibition at 10 μM)”.
Consider `CSC1OC(COCc2ccc(Cl)cc2)C(O)C(OCc2ccc(Cl)cc2)C1NC(=O)CN` (stereo not drawn) [compound 269], for which the “A10: inhibition of radioligand binding” value at Human opioid (ORL1) is listed as “− (“−” indicates less than 50% inhibition at 10 μM)”. Further, the “A11: inhibition of radioligand binding” value at Mouse urotensin (mUR2) is listed as “− (“−” indicates less than 50% inhibition at 10 μM)”. In addition, on Human Melanocortin (MC4), the “A4: inhibition of radioligand binding” value is recorded as “− (“−” indicates less than 50% inhibition at 10 μM)”. Besides, the “A7: inhibition of radioligand binding” value on Human μ-opioid (MOP) is recorded as “− (“−” indicates less than 50% inhibition at 10 μM)”. Further, the “A6: inhibition of radioligand binding” value in test [1] is reported as “− (“−” indicates less than 50% inhibition at 10 μM)”. In addition, the “A3: inhibition of radioligand binding” value on Human Melanocortin (MC3) was “− (“−” indicates less than 50% inhibition at 10 μM)”. For the same molecule, the “A9: inhibition of radioligand binding” value in test [2] was “− (“−” indicates less than 50% inhibition at 10 μM)”. For the same molecule, the “A8: inhibition of radioligand binding” value on Human neurokinin (NK1) is “+ (“+” indicates greater than 50% inhibition at 10 μM)”. The “A5: inhibition of radioligand binding” value at Human melanocortin (MC5) is listed as “− (“−” indicates less than 50% inhibition at 10 μM)”. The “A1: inhibition of radioligand binding” value at Human δ-opioid (DOP) is recorded as “− (“−” indicates less than 50% inhibition at 10 μM)”. Further, the “A2: inhibition of radioligand binding” value at Human κ-Opioid (KOP) is “− (“−” indicates less than 50% inhibition at 10 μM)”.

The values are drawn from patent US20080009418A1, “Selective Inhibitors” (Alchemia LTD., priority 2004, published 2008).
